{"source": "patent US12239686B2", "about": "“Immune checkpoint inhibitor combinations” (LYTIX BIOPHARMA AS, priority 2014, dated 2025)", "key": {"A375 cells [1]": {"test_system": "A375 cells", "experiment": "Confocal microscopy, fluorescence-labeled peptide internalization", "assay_type": "cell-based, human", "conditions": "1.5 and 3 μM", "procedure": "Fixed cells, fluorescence-labeled peptide-Subconfluential A375 cells were seeded at 8,000 cells/well as above, and transfected on the second day using the Lipofectamine LTX with Plus transfection reagents (Invitrogen) following the manufacturer's protocol. The mitochondria were labeled using the pDsRed2-Mito, and the nucleus was labeled using the GFP-Histon2B plasmid (Imaging Platform, University of Tromsø). A day after transfection, cells were washed twice with serum-free RPMI, and treated at different concentration and incubation periods with LTX-315 Pacific Blue or LTX-328 Pacific Blue.\nControl cells were treated with unlabeled LTX-315 and also with serum-free RPMI only. After incubation, cells were fixed with 4% paraformaldehyde in PBS, and the wells were covered with Prolong Gold antifade (Invitrogen). Cells were further analyzed by use of a Leica TCS SP5 confocal microscope, with a […] objective. Pacific Blue, GFP and Ds Red were excited using UV, with 488 and 561 lasers, and fluorescence channels were sequentially detected using the following band passes: UV: 420-480 nm (with attenuation), 488: 501-550 nm and 561: 576-676 nm."}, "[2]": {"test_system": "EMT-6 murine mammary carcinoma", "experiment": "EMT-6 mammary carcinoma model, two-flank tumours", "assay_type": "in vivo, mice", "procedure": "The anti-PD-L1 antibody had the following characteristics: ref: BE0101, Bioxcell; clone 10F.9G2; reactivity: mouse; isotype: Rat IgG2b. LTX-315 was prepared at a dose of 0.5 mg/50 μL in 0.9% sodium chloride solution. Anti-PD-L1 antibody was prepared at a concentration in phosphate-buffered saline and was administered at a dose of 10 mg/kg. LTX-315 was injected into the tumour grafted on the right flank of the mice, anti-PD-L1 antibody was injected into the peritoneal cavity of the mice.\nInduction of MET-6 tumours in mice: A first tumor was induced by subcutaneous injection of 1×10^6 of EMT-6 cells in 200 μL of RPMI 1640 into the right flank of Balb/C female mice. The day of tumor cell injection in the right flank was considered as DO. A second tumor was induced by subcutaneous injection of 1×10^5 of EMT-6 cells in 200 μL of RPMI 1640 into the left flank of Balb/C female mice. The day of tumor cell injection in the left flank was considered as D3.\nTreatment schedule: Mice were randomized according to their body weight on D3 into four groups each of 5 mice (group 1) or 10 mice (groups 3, 5 and 7) using Vivo Manager® software (Biosystemes, Couternon, France). A statistical test (analysis of variance) was performed to test for homogeneity between groups. […]\nMouse monitoring: All study data, including mouse body weight measurements, tumour volume, clinical and mortality records, and treatment were scheduled and recorded on Vivo Manager® database (Biosystemes, Dijon, France). The viability and behaviour was recorded every day. Body weights were measured thrice a week. The length and width of the tumor was measured three times a week with calipers and the volume of the tumour was estimated by the following formula: tumour volume=(width2×length)/2 (SIMPSON-HERREN L. et al. Cancer Chemotherapy Rep., 54: 143, 1970)."}, "K5627/Gleevec": {"test_system": "K5627/Gleevec", "assay_type": "cell-based, human", "conditions": "resistant", "procedure": "Tumor cells were grown as adherent monolayers or as suspensions at 37° C. in a humidified atmosphere (5% CO2, 95% air). The culture medium was RPMI 1640 containing 2 mM L-glutamine (Lonza, Belgium) and supplemented with 10% fetal bovine serum (FBS, Lonza). For experimental use, the adherent cells were detached from the culture flask by a 5-minute treatment with trypsin-versene (Lonza), diluted in Hanks' medium without calcium or magnesium (Lonza) and neutralized by addition of complete culture medium. Cells were counted in a hemocytometer and their viability was assessed by 0.25% trypan blue exclusion. […]\nThree independent experiments were performed, each concentration being tested in quadruplicate. […] At the end of treatments, the cytotoxic activity was evaluated by a MTS assay (see § 3.3). […]\nAt the end of the cells treatment, 40 μl of a 0.22 μm filtered freshly combined solution of MTS (20 ml at 2 mg/ml, Ref G1111, Batch 235897, Exp 03/2009, Promega, Charbonnières, France) and PMS (1 ml at 0.92 mg/ml, Ref P9625, Batch 065K0961, Sigma) in Dulbecco's Phosphate Buffered Saline (DPBS, Ref 17-513Q, Batch 6MB0152, Cambrex), were added in each well. […] Absorbency (OD) were measured at 490 nm in each well using VICTOR^3TM 1420 multilabeled counter (Wallac, PerkinElmer, Courtaboeuf, France). […]"}, "A375 cells [3]": {"test_system": "A375 cells", "experiment": "Release of ATP, luciferase assay of supernatant", "assay_type": "cell-based, human", "conditions": "concentration-dependent", "procedure": "The supernatant of LTX-315-treated A375 cells was analyzed using an Enliten ATP luciferase assay kit (Promega, USA). Cells were then seeded as with an ROS assay, and treated with LTX-315 in different incubation times, from 1 to 15 minutes with two parallels, which was then conducted three times. Negative controls were untreated A375 cells exposed to serum-free media alone. Samples were diluted at 1:50 and 1:100, and analyzed with a Luminoscan RT luminometer according to the manufacturer's protocol."}}, "note": "Non-standard residues stand in square brackets, D forms with d. Residues, ends and D or L forms follow the SMILES beside them. Dip = N[C@H](C(=O)O)C(c1ccccc1)c1ccccc1"}
{"smiles": "NCCCC[C@H](NC(=O)[C@@H](NC(=O)[C@H](Cc1c[nH]c2ccccc12)NC(=O)[C@H](CCCCN)NC(=O)[C@H](CCCCN)NC(=O)[C@H](Cc1c[nH]c2ccccc12)NC(=O)[C@H](Cc1c[nH]c2ccccc12)NC(=O)[C@H](CCCCN)NC(=O)[C@@H](N)CCCCN)C(c1ccccc1)c1ccccc1)C(N)=O", "note": "[LTX-315, K-K-W-W-K-K-W-Dip-K-NH2] (H-KKWWKKW[Dip]K-NH2)", "values": [{"measurement": "internalization of Pacific Blue-labeled peptide", "setting": "A375 cells [1]", "value": "showed an accumulation around the mitochondria after 30 minutes of incubation but was not detected in the cell nucleus"}, {"measurement": "test mice surviving for more than 50 days after tumour induction", "setting": "[2]; LTX-315 0.5 mg i.t. Q1Dx3, anti-PD-L1 10 mg/kg IP Q2Dx6", "value": 30, "unit": "%"}, {"measurement": "Proportion of Mice with total tumour regression, Right flank", "setting": "[2]; treated flank, day 52 or when sacrificed", "value": 30, "unit": "%"}, {"measurement": "Proportion of Mice with total tumour regression, Left flank", "setting": "[2]; untreated flank, day 52 or when sacrificed", "value": 10, "unit": "%"}, {"measurement": "IC50", "setting": "K5627/Gleevec", "value": 2.98, "unit": "µM"}, {"measurement": "extracellular ATP release", "setting": "A375 cells [3]", "value": "ATP was detected in the supernatant as early as after 5 minutes of treatment"}]}
